# Measurements taken from PMC4913735, “Non‐glycosidic compounds can stimulate both human and mouse iNKT cells” (European Journal of Immunology, 2016).
# Assays:
# [1] = biological target: murine Vα14/Vβ8 iNKT‐cell TCR (Mus musculus, UniProt P11609+Z9CWY5XBV8); test: SPR binding of soluble murine iNKT‐cell TCR to mCD1d/lipid complexes; settings: for Kd: SPR equilibrium binding, mCD1d loaded with lipid, read-out: K d, murine iNKT‐cell TCR binding to mCD1d/lipid complex
# Description: In order to extend the analysis of the ability of ThrCer analogs to activate iNKT‐cells in vivo, we assessed their ability to promote a response in a murine model. First, we performed binding assays using in vitro‐loaded murine recombinant CD1d (mCD1d) molecules and in vitro‐refolded murine Vα14/Vβ8 iNKT‐cell TCR.
# (§1) Soluble human invariant TCR was generated as previously described 34 where both the Vα24 and Vβ11 chains were individually overexpressed in Escherichia coli, purified from the inclusion bodies, then refolded, and purified to generate the TCR heterodimers, according to Boulter et al. 43. The murine TCR was generated according to Pellici et al. as a chimeric molecule (with variable murine regions and human constant regions) 44. The hybrid alpha chains and beta chains were individually expressed in E. coli and purified from the inclusion bodies, then refolded as above.
# (§2) SPR experiments were performed with a BIAcore 3000 to measure the affinity and kinetics of iNKT‐cell TCR binding to human CD1d–ligand complexes. In brief, approximately 1000 RU of the biotinylated hCD1d–lipid complexes were immobilized onto streptavidin‐coated CM5 sensor chips (BIAcore). Aliquots of purified TCR with increasing concentrations were passed over immobilized hCD1d–lipid complex at a flow rate of 10 μL/min for the equilibrium‐binding experiments or 50 μL/min for the kinetics experiments. The dissociation constants, K d, were calculated by fitting the data from the equilibrium‐binding experiment to a non‐linear regression saturation binding model (GraphPad Prism 5.0), whereas the k off data were estimated from the kinetics experiments by fitting the data with the built‐in models of the BIAeval3.1 software (BIAcore).
# human iNKT‐cell TCR = human iNKT‐cell TCR (Homo sapiens, UniProt A0A0B4J240+P15813); test: SPR (BIAcore) binding of soluble human iNKT‐cell TCR to hCD1d/lipid complexes; settings: for Kd: SPR equilibrium binding, hCD1d refolded with lipid, read-out: K d, human iNKT‐cell TCR binding to hCD1d/lipid complex; for koff: SPR kinetics experiment, read-out: k off, human iNKT‐cell TCR from hCD1d/lipid complex
# Description: Two analogs of ThrCer, ThrCer 6, and ThrCer 7 were synthesized. […] We first carried out measurements to assess the binding affinity of these ThrCer analogs to human iNKT‐cell TCR (Fig. 1B). Recombinant human CD1d (hCD1d) molecules were refolded in vitro with ThrCer 6 and ThrCer 7 separately and coupled to BIAcore chips, over which refolded human iNKT‐cell TCR was injected at different concentrations 34. […] Importantly, these findings were consistent with data obtained using tetrameric human iNKT‐cell TCRs as a staining reagent to identify lipid/CD1d complexes on the surface of C1R cells that had been transfected with hCD1d cDNA (hCD1d C1R cells) and subsequently loaded with the different lipids 34 (Fig. 1C).
# as §1, §2
# [2] = tested on: EG7 cells (OVA‐expressing EL4); test: Injection of OVA plus iNKT‐cell agonist in EG7 tumor‐bearing mice; type: in vivo; settings: 1 μg lipid i.v. with OVA, 4 days after EG7 s.c.; for OVA‐specific CD8+ T cells in blood (tetramer) in tumor‐bearing mice: bled 7 days later
# Description: To test the functional consequences of iNKT‐cell‐induced DC maturation (Fig. 1E and Supporting Information Fig. 1) and to assess whether iNKT‐cell activation mediated by the injection of either ThrCer 6 or ThrCer 7 could lead to cross‐presentation of peptides derived from soluble antigenic proteins, mice were injected with the tumor cell line EL4 encoding the full‐length OVA and then 4 days later were immunized i.v. with full‐length OVA together with 1 μg of non‐glycosidic iNKT‐cell agonists. As a control, mice were injected with α‐GalCer with full‐length OVA. Seven days later, OVA‐specific CD8^+ T‐cells were detected in the blood by H‐2 K^b/OVA257–264 tetramer staining of CD8^+ T cells.
# Figure 4 Injection of ThrCer 6 with OVA into tumor‐bearing mice results in tumor regression. Mice (n = 4–6) were injected s.c. with OVA‐expressing EL4 cells (EG7 cells). Four days later mice were injected i.v. with OVA protein together with either vehicle or 1 μg of the indicated iNKT‐cell agonist. (A) Seven days later mice were bled and the number of H‐2K^b 257‐264 tetramer^+ cells was assessed by FACS analysis. (B) The size of the tumor was subsequently measured regularly using calipers and expressed as surface area. The arrow indicates the timing of the injection of soluble OVA plus iNKT‐cell agonists. (A and B) Data are shown as mean ± SEM and are representative of two independent experiments.
# Mice (n = 4–6) were injected subcutaneously (s.c.) with 1 × 10^6 EG7 cells (a derivative of the thymoma EL4, expressing the OVA protein). Four days later mice were injected i.v. with 800 μg OVA together with either vehicle or 1 μg of the indicated iNKT‐cell agonist. Seven days later mice were bled and the number of H‐2K^b 257–264 tetramer^+ cells was assessed by FACS analysis. The size of the tumor was subsequently measured regularly using calipers and expressed as surface area.
# murine Vα14/Vβ8 iNKT‐cell TCR, sequence (P11609 whole entry, looked up, other chains not shown): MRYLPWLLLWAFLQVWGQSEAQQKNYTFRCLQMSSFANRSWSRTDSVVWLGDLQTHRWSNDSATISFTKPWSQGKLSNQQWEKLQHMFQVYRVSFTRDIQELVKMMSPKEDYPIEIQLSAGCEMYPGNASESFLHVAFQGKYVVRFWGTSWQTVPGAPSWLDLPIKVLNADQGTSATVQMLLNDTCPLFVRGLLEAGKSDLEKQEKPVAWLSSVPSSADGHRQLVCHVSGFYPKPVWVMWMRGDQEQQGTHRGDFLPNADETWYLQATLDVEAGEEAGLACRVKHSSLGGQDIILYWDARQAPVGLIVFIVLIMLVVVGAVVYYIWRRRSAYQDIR
# human iNKT‐cell TCR, sequence (P01848 1-93): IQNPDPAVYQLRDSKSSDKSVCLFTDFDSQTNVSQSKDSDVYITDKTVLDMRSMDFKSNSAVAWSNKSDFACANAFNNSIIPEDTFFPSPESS
# human iNKT‐cell TCR, sequence (P61769 21-119, further chain): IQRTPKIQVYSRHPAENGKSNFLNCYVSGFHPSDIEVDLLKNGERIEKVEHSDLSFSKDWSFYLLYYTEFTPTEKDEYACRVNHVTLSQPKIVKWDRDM
# human iNKT‐cell TCR, sequence (A0A0B4J240 22-114): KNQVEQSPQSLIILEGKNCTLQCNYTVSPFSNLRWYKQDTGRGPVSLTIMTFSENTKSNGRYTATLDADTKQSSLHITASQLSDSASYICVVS
# human iNKT‐cell TCR, sequence (P01850 1-129, further chain): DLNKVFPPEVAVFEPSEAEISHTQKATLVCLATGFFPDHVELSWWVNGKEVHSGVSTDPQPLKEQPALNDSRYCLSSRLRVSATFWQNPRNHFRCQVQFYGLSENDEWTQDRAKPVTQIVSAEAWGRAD
# human iNKT‐cell TCR, sequence (P15813 20-301): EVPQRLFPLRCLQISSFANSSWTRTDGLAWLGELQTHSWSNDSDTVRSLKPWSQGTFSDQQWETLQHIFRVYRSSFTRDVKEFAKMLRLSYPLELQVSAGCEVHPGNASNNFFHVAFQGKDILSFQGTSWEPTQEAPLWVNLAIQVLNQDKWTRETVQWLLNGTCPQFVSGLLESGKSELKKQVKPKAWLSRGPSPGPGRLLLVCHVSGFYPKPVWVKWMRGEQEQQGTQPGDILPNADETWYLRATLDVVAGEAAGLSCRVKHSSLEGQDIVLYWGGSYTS
SMILES,"Koff, murine iNKT‐cell TCR from mCD1d/lipid complex [1] [S^-1]","Kon, murine iNKT‐cell TCR to mCD1d/lipid complex [1]",Kd [1] [µM],Kd (human iNKT‐cell TCR) [µM],koff (human iNKT‐cell TCR) [s⁻¹],Rejection of OVA‐expressing implanted tumors [2],OVA‐specific CD8+ T cells in blood (tetramer) in tumor‐bearing mice [2]
CCCCCCCCCCCCCCCCCCCCCCCCCC(=O)N[C@@H](CO[C@H]1CC[C@H](O)[C@H](O)[C@H]1O)[C@H](O)[C@H](O)CCCCCCCCCCCCCC [ThrCer 6],0.050,3.47 x10^4 M^-1 S^-1,1.44 ± 0.13,0.61 ± 0.1,0.165,rejected,peptide‐specific response
CCCCCCCCCCCCCCCCCCCCCCCCCC(=O)NC(COC1CCCC(O)C(O)C1O)C(O)C(O)CCCCCCCCCCCCCC (stereo not shown) [ThrCer 7],0.214,8.39 x10^4 M^-1 S^-1,2.55 ± 0.17,0.76 ± 0.08,0.142,,peptide‐specific response
"CCCCCCCCCCCCCCCCCCCCCCCCCC(=O)N[C@@H](CO[C@H]1O[C@H](CO)[C@H](O)[C@H](O)[C@H]1O)[C@H](O)[C@H](O)CCCCCCCCCCCCCC [α‐GalCer, α‐galactosylceramide, reference compound]",0.059,3.93 x10^4 M^-1 S^-1,1.5 ± 0.16,1.12 ± 0.13,0.41,,peptide‐specific response
